Reference: PMC12311387, “Proactive Therapeutic Drug MONiToring to Guide Suppressive Antibiotic Therapy with DALBAvaNcin ( > 12 weeks) in Osteoarticular Infections (MONTALBANO)” (Journal of Bone and Joint Infection, 2025)

Key:
[1] = Therapeutic drug monitoring of plasma dalbavancin Cmin (LC-MS/MS) from the fourth dose onward; type: in vivo, human
Protocol: Included patients received the first three dalbavancin doses on day 1 (T0), day 8 (T1), and day 43 (T2) (Senneville et al., 2023). Subsequent injection timings were personalized and determined using dalbavancin Cmin measured immediately before the dalbavancin administration and maximum plasma concentrations ( Cmax ) measured 30 min after the end of the injection (Fig. 1). Starting from the third dose, Cmin and Cmax values were used in log-linear regression models by plotting logarithmic dalbavancin concentrations with time (Microsoft Excel Software, Microsoft Company, USA) (Cattaneo et al., 2023) to plan the subsequent administration aiming to maintain Cmin levels at ≥8 mg L^−1, as recommended in the recent literature (Cojutti et al., 2021).
Plasma dalbavancin blood samples were assessed using ethylene–diamine–tetraacetic acid (EDTA)-containing Vacutainers®. All samples were centrifuged at 3000 × g and plasma was separated and stored at -20 °C. Dalbavancin quantification was performed through a validated liquid chromatography tandem mass spectrometry method developed and validated according to the EMA guidelines. The analytical process consisted of a fast protein precipitation protocol of 50 µ L of plasma with 400 µ L of precipitation solution (methanol / acetonitrile, 3 / 1), centrifugation at 10 000 × g , 1 : 3 dilutions with water, and analysis. Chromatographic separation was achieved using a gradient (acetonitrile and water with formic acid 0.1 %) on a reversed-phase analytical column (Acquity UPLC BEH C18 1.70 µ m 2.1 × 50 mm; Waters, Milan, Italy). For quantification, analysis was performed in ESI-positive mode by monitoring the transition m/z = 909.45 > 340.2 for dalbavancin. The method was linear from 1 to 500 mg L^−1, with intraday and interday assay imprecision and inaccuracy consistently < 10 % during each analytical run.
The primary outcome was to evaluate the pharmacological efficacy of our proactive TDM-based administration method in maintaining the dalbavancin Cmin level at ≥8 mg L^−1 or ≥4 mg L^−1 taken from the fourth dose onward.
Pharmacological efficacy was defined as the number of instances where Cmin≥8 mg L^−1(or ≥4 mg L^−1) was achieved from the fourth dose onward. […] A tolerance window of up to ±4 d from the calculated injection date was allowed to adapt the model to real-life conditions and improve adherence to the treatment regimen.

[2] = tested on: osteoarticular infections (OAIs); assay: Clinical effectiveness from chart review in patients with osteoarticular infections; type: in vivo, human
Protocol: We established effectiveness with an assessment of clinical and microbiological outcomes from chart review detected up to 31 October 2024. If the patient was still on dalbavancin treatment, the clinical outcome was assessed as “ongoing treatment”. Otherwise, the assessment could result in the following: (i) completed therapy with clinical success (absence of failure or relapse at the follow-up); (ii) failure (clinical or microbiological failure with uncontrolled infection during dalbavancin treatment; need for medical interventions for the treated episode in addition to the initial program); (iii) relapse (exacerbation of the clinical condition within 6 months after the end of treatment); (iv) discontinuation of therapy due to AEs; (v) discontinuation of therapy due to new hospitalization for other clinical events; (vi) missing data (insufficient details to assess the outcome; lost at follow-up); (vii) death for infection-related conditions; or (viii) death for non-infection-related conditions.

[3] = Safety: monitoring of adverse events, renal toxicity and platelet count; type: in vivo, human; details: patients n=33, treatment >12 weeks
Protocol: Safety was assessed by monitoring AEs. We defined renal toxicity as a reduction in the estimated glomerular filtration rate (eGFR) to less than 30 mL min^−1/1.73 m^2, accompanied by a decrease of at least 20 % from baseline. A significant reduction in platelet count was considered when the count fell below 100 000 per mm^−3 with a decrease of at least 25 % from baseline.

Isolated pathogens = assay: MIC of pathogens isolated from the patients; type: cell-based; details: calculated for one patient only
Description: Table 1 Baseline characteristics of the study population.

[4] = 12 PJI patients, 1500 mg day 1, 8, 14 then 1000 mg biweekly from day 28; all Cmin values well above target; ref Söderquist et al., 2024; cited from earlier work
Protocol: Currently, there is considerable heterogeneity in the use of SAT with dalbavancin for OAIs in both the initial and the maintenance doses. For the latter, some proposed regimens range from 500 mg weekly to 500 mg biweekly to 1000 mg biweekly (Martín et al., 2019; Morata et al., 2019; Wunsch et al., 2019). However, none of these studies employed TDM to assess the pharmacological efficacy of such regimens. Söderquist et al. (2024) recently shared their experience with 12 patients treated with long-term ( >12 weeks) dalbavancin for PJI, according to the Swedish national guidelines and introducing ...

[5] = cited from earlier work
[6] = only determinations within ±4 d of the date suggested by the model, plasma
[7] = plasma trough determinations from fourth dose onward, 33 OAI patients, TDM-guided dosing, total concentration

For `CN[C@H]1C(=O)N[C@@H]2Cc3ccc(cc3)Oc3cc4cc(c3O[C@@H]3O[C@H](C(=O)O)[C@@H](O)[C@H](O)[C@H]3NC(=O)CCCCCCCCC(C)C)Oc3ccc(cc3Cl)[C@@H](O)[C@@H]3NC(=O)[C@H](NC(=O)[C@@H]4NC(=O)[C@@H](NC2=O)c2cc(cc(O)c2Cl)Oc2cc1ccc2O)c1ccc(O)c(c1)-c1c(O[C@H]2O[C@H](CO)[C@@H](O)[C@H](O)[C@@H]2O)cc(O)cc1[C@@H](C(=O)NCCCN(C)C)NC3=O` [dalbavancin], the “Cmin ≥4 mg L^−1, n (%), Cmin performed at correct timing (n=95)” value [1, 6] was 93 (97.9) n (%), the “Cmin ≥8 mg L^−1, n (%), Cmin performed at correct timing (n=95)” value [1, 6] was 81 (85.3) n (%) and the “Cmin ≥4 mg L^−1, n (%), Total Cmin (n=118)” value [1, 7] was 114 (96.6) n (%). The “Cmin ≥8 mg L^−1, n (%), Total Cmin (n=118)” value [1, 7] was 93 (78.8) n (%), the “Completed therapy with clinical success, n (%)” value ([2]; patients n=33) was 11 (33.3) n (%) and the “Failure, n (%)” value ([2]; patients n=33) was 1 (3) n (%). The “Ongoing, n (%)” value ([2]; patients n=33, still on treatment with controlled infection at end of study) was 18 (54.5) n (%), the “Relapse, n (%)” value ([2]; patients n=33, within 6 months after end of treatment) was 3 (9.1) n (%) and the “AEs, n (%)” value [3] was 0 n (%). For the same compound, the “Adverse effects on renal function or platelet count” value [3] was “did not observe any adverse effects on renal function or platelet count”, the MIC for dalbavancin (Isolated pathogens) was under 0.06 µg/mL and the Cmin [4] was over 8 mg/L. The “penetration proportion into bone tissue” value ([5]; ref Dunne et al., 2015) was 13.1%, the half-life ([5]; ref Rappo et al., 2019a) was 14.4 days and the total binding protein ([5]; ref Rappo et al., 2019a) was 93%.
